Reference: patent US9101567B2, “Suppression of cancer growth and metastasis using nordihydroguaiaretic acid derivatives with 7-hydroxystaurosporine” (The Johns Hopkins University, priority 2010, dated 2015)

Columns and labels:
[1] = tested on: LNCaP human prostate cancer cells; assay: TUNEL assay of cell death in LNCaP cells; assay type: cell-based; conditions: 24 hrs, z-DEVD-fmk 50 μM
Text: LNCaP human prostate cancer, DU145 human prostate cancer, PC3 human prostate cancer, MCF-7 human breast cancer, MDA-MB-231 human breast cancer, MDA-MB-468 human breast cancer, HT29 human colon cancer, K562 human myelogenous leukaemia, HepG2 human hepatoma, Hep3B human hepatoma, and LN229 human glioblastoma cancer cell lines were purchased from American Type Culture Collection (Manassas, Va.). OC24 human ascites ovarian cancer cell line was a generous gift from Dr. XXX (Johns Hopkins University, MD). LNCaP cell line was cultured in RPMI1640 medium supplemented with glucose (14 mM), pyruvate (1 mM), and fetal bovine serum (FBS) (10%). DU145 cell line was cultured in MEM supplemented with non-essential amino acids, glucose (21 mM), pyruvate (1 mM), and FBS (10%). PC3 cell line was cultured in F-12K medium supplemented with FBS (10%). MCF-7 cell line was cultured in DMEM supplemented with FBS (10%). OC24 cell line was cultured in RPMI1640 medium supplemented with FBS (10%) as suspension culture. MDA-MB-231 and 468 cell lines were cultured in Leibovitz's L15 medium supplemented with FBS (10%) under air. HT29 cell line was cultured in DMEM supplemented with glucose (25 mM) and FBS (10%). K562 cell line was cultured in RPMI1640 supplemented with FBS (10%). HepG2 and Hep3B cell lines were cultured in MEM supplemented with FBS (10%). LN229 cell line was cultured in DMEM supplemented with FBS (5%). […]

caspase-3 and 9 = assay: Western blotting of cleaved caspase-3 and 9 in LNCaP cells; assay type: cell-based, human; conditions: 17 hrs, M4N 80 μM, etoposide 10 μM, rapamycin 10 μM, UCN-01 2 μM
Method: (§1) The sample volumes were adjusted by the total protein amount. Protein assay was performed by Bio-Rad Protein Assay (Bio-Rad Laboratories, Inc. Hercules, Calif.). The samples were resolved by the standard SDS-polyacrylamide gel electrophoresis and transferred to nitrocellulose membrane (Amersham Biosciences, Bjorkgatan, Sweden). The membranes were blocked with skim milk, and incubated with primary antibodies at 4° C. overnight and then with secondary antibody conjugated with horse radish peroxidase at room temperature for 2 hrs. The signals were detected by western blot chemiluminescence reagent plus (New England Nuclear Life Science Products, Boston, Mass.).
(§2) The efficacy of the combination treatment of M4N with three anticancer drugs, etoposide, rapamycin, and UCN-01 to induce cell death was examined for LNCaP human prostate cancer cells with TUNEL assay. We chose these anticancer drugs trying to diversify the mechanisms in which the anticancer drugs work (43-45). […] Additionally the effect of caspase-3 and 7 inhibitor, zDEVD-fmk on the cell death induced by the combination treatment was examined (FIG. 1E).

caspase-7 [2] = assay: Enzymatic assay for caspase-7 in extracts of treated LNCaP cells; assay type: cell-based, human; conditions: extracts of LNCaP cells treated for 13 hrs
Method: The enzymatic assay specific for caspase-7 was performed using a CaspSELECT caspase-7 immunoassay kit (BioVision, Mountain View, Calif.). This assay is based on the […] assay with DEVD-afc. Since DEVD-afc can be a substrate for either caspase-3 or 7, only caspase-7 is selected from cell extracts by anti-caspase-7 antibody which is coated on microtiter plates. Briefly the microtiter plates were coated with anti-caspase-7 antibody overnight at 4 C and blocked with a blocking solution for 30 minutes at room temperature. The cell extracts were applied to the microtiter plates. After washing the microtiter plates, the substrate […] was added to the plates and incubated for about three hours. The fluorescence was measured by a microtiter plate fluorescence reader Infinite 200 (Tecan, Switzerland).
as §2

caspase-7 [3] = assay: Western blotting of caspase-7 cleavage in HepG2 cells; assay type: cell-based, human; conditions: HepG2, 17 hrs; M4N 80 μM, etoposide 20 μM, rapamycin 20 μM, UCN-01 5 μM
Method: as §1
The effect of the combination treatments on cell death and autophagy was examined in two cell lines other than LNCaP cells.

LNCaP tumors = assay: Nude mice orthotopically implanted with LNCaP tumors: life-span and lung metastasis; assay type: in vivo, nude (nu/nu) mice; conditions: LNCaP tumor-bearing nude mice; lung sections, hematoxylin and eosin
Method: T-cell deficient male nude mice (nu/nu) were obtained from Charles River Laboratories (Wilmington, Mass.). […] For drug combinations (M4N/etoposide, M4N/rapamycin, and M4N/UCN-01), etoposide, rapamycin, or UCN-01 powder was further added to M4N in CPE 25/30 to make a final concentration of M4N (10 mg/ml) respectively with etoposide (4 mg/ml), rapamycin (3.75 mg/ml), or UCN-01 (884 g/ml) in CPE 25/30 formulation. These drugs were intravenously injected into the tail vein of mice at the daily dose of 0.1 ml per mouse. Therefore dosages of each injection were 1 mg/shot (for M4N), 0.4 mg/shot (for etoposide), 0.375 mg/shot (for rapamycin), and 88.4 μg/shot (for UCN-01). The drug injections were performed once every day; beginning at day 3 until day 31 after tumor inoculation for the combination treatment with either etoposide or rapamycin and until day 25 after tumor inoculation for the combination treatment with UCN-01. After this the drugs were injected once a week for etoposide/rapamycin combination treatment and once every three days until day 35 for UCN-01 combination treatment.
LNCaP cells growing subconfluently were collected into the tissue culture medium without fetal bovine serum and antibiotics. The cell concentration was adjusted by the same medium. […]

## COC(=O)CC[C@H](NC(=O)[C@H](CC(=O)OC)NC(=O)OCc1ccccc1)C(=O)N[C@H](C(=O)N[C@@H](CC(=O)OC)C(=O)CF)C(C)C [zDEVD-fmk]
[1]
  effect on TUNEL-positive cell death induced by the combination treatments: inhibited a large portion of the cell death

## COc1cc([C@@H]2c3cc4c(cc3[C@@H](O[C@@H]3O[C@@H]5CO[C@@H](C)O[C@H]5[C@H](O)[C@H]3O)[C@H]3COC(=O)[C@H]23)OCO4)cc(OC)c1O [etoposide]
caspase-3 and 9
  expression of cleaved caspase-3 and 9: didn't induce the cleavage
caspase-7 [2]
  caspase-7 activation (enzymatic activity): only a small amount
caspase-7 [3]
  caspase-7 cleavage product: small amount
LNCaP tumors
  mice with obvious lung metastasis (histology): 3 out of 5
